#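 Assay format: 96-well plates, 48-hour exposure. Here, GI50 denotes the concentration required for 50% inhibition of growth. TGI marks complete inhibition of growth.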
# Experiments:
# Assay in all cases: inhibition of tumour cell growth, NCI panel, 48 h
# IGROV1 ovarian = system: IGROV1 ovarian
# LOX IMVI melanoma = system: LOX IMVI melanoma
# HOP-62 NSCLC = system: HOP-62 NSCLC
# SK-MEL-5 melanoma = system: SK-MEL-5 melanoma
# UACC-257 melanoma = system: UACC-257 melanoma
# UACC-62 melanoma = system: UACC-62 melanoma
# A549 NSCLC = system: A549 NSCLC
# SF-539 CNS = system: SF-539 CNS
# HCT-15 colon = system: HCT-15 colon
# RPMI-8226 leukemia = system: RPMI-8226 leukemia
# NCI-H226 lung = system: NCI-H226 lung
# T-47D breast = system: T-47D breast
# CAKI-1 renal = system: CAKI-1 renal
# PC-3 prostate = system: PC-3 prostate
# NCI-H23 lung = system: NCI-H23 lung
# HCT-116 colon = system: HCT-116 colon
# K-562 leukemia = system: K-562 leukemia
# MCF7 breast = system: MCF7 breast
# NCI-H460 lung = system: NCI-H460 lung
# CCRF-CEM leukemia = system: CCRF-CEM leukemia
# HL-60(TB) leukemia = system: HL-60(TB) leukemia
# SF-295 CNS = system: SF-295 CNS
# UO-31 renal = system: UO-31 renal
# COLO 205 colon = system: COLO 205 colon
# SNB-75 CNS = system: SNB-75 CNS
# M14 melanoma = system: M14 melanoma
# NCI-H522 lung = system: NCI-H522 lung
# HOP-92 NSCLC = system: HOP-92 NSCLC
# U251 CNS = system: U251 CNS
compound,measurement,setting,value
CCCc1cc(=O)n2c(C(=O)Nc3ccccc3OC)c(C(=O)Nc3ccc(F)cc3)sc2n1,TGI,IGROV1 ovarian,46.2 µM
same,GI50,LOX IMVI melanoma,5.18 µM
same,TGI,LOX IMVI melanoma,38.1 µM
same,GI50,HOP-62 NSCLC,2.21 µM
same,TGI,HOP-62 NSCLC,13.9 µM
same,GI50,SK-MEL-5 melanoma,48.6 µM
same,TGI,SK-MEL-5 melanoma,> 160 µM
same,GI50,UACC-257 melanoma,20.2 µM
same,TGI,UACC-257 melanoma,60.2 µM
same,GI50,UACC-62 melanoma,4.24 µM
same,TGI,UACC-62 melanoma,22.7 µM
same,GI50,A549 NSCLC,5.27 µM
same,TGI,A549 NSCLC,20.2 µM
same,GI50,SF-539 CNS,16.8 µM
same,TGI,SF-539 CNS,38 µM
same,GI50,HCT-15 colon,72 µM
same,TGI,HCT-15 colon,> 160 µM
same,GI50,RPMI-8226 leukemia,3.15 µM
same,TGI,RPMI-8226 leukemia,32.8 µM
same,GI50,NCI-H226 lung,0.802 µM
same,TGI,NCI-H226 lung,6.96 µM
same,GI50,T-47D breast,71.8 µM
same,TGI,T-47D breast,> 160 µM
same,GI50,CAKI-1 renal,35.3 µM
same,TGI,CAKI-1 renal,> 160 µM
same,GI50,PC-3 prostate,3.61 µM
same,TGI,PC-3 prostate,12.9 µM
same,GI50,NCI-H23 lung,37.1 µM
same,TGI,NCI-H23 lung,> 160 µM
same,GI50,HCT-116 colon,4.61 µM
same,TGI,HCT-116 colon,22.2 µM
same,GI50,K-562 leukemia,4.64 µM
same,TGI,K-562 leukemia,33.1 µM
same,GI50,MCF7 breast,14.6 µM
same,TGI,MCF7 breast,115 µM
same,GI50,NCI-H460 lung,39.8 µM
same,TGI,NCI-H460 lung,> 160 µM
same,GI50,CCRF-CEM leukemia,24.7 µM
same,TGI,CCRF-CEM leukemia,59 µM
same,GI50,HL-60(TB) leukemia,37.4 µM
same,TGI,HL-60(TB) leukemia,> 160 µM
same,GI50,SF-295 CNS,19 µM
same,TGI,SF-295 CNS,61.7 µM
same,GI50,UO-31 renal,23.4 µM
same,TGI,UO-31 renal,81.8 µM
same,GI50,COLO 205 colon,38.2 µM
same,TGI,COLO 205 colon,> 160 µM
same,GI50,SNB-75 CNS,8.72 µM
same,TGI,SNB-75 CNS,35 µM
same,GI50,M14 melanoma,23.3 µM
same,TGI,M14 melanoma,110 µM
same,GI50,NCI-H522 lung,17.7 µM
same,TGI,NCI-H522 lung,68 µM
same,GI50,HOP-92 NSCLC,1.43 µM
same,TGI,HOP-92 NSCLC,4.73 µM
same,GI50,U251 CNS,5.88 µM
same,TGI,U251 CNS,21.5 µM

# Reference: PubChem BioAssay (NCI)
